Experimental data as given in paper PMC11441106 (Journal of medicinal chemistry, 2024).

Tests used:
D1R = D1R (Homo sapiens, UniProt P21728); assay: Tango β-arrestin recruitment at D1R; assay type: cell-based; settings: Tango assay
in vivo = settings: rat
hERG = hERG (Homo sapiens, UniProt Q12809); assay type: binding
α 1D = target: T1, α 1D (Homo sapiens, UniProt P25100); assay: NIMH-PDSP broad-panel counter screening; settings: read-out: % inhibition (10 μM)
T1 sequence (P25100 1-572): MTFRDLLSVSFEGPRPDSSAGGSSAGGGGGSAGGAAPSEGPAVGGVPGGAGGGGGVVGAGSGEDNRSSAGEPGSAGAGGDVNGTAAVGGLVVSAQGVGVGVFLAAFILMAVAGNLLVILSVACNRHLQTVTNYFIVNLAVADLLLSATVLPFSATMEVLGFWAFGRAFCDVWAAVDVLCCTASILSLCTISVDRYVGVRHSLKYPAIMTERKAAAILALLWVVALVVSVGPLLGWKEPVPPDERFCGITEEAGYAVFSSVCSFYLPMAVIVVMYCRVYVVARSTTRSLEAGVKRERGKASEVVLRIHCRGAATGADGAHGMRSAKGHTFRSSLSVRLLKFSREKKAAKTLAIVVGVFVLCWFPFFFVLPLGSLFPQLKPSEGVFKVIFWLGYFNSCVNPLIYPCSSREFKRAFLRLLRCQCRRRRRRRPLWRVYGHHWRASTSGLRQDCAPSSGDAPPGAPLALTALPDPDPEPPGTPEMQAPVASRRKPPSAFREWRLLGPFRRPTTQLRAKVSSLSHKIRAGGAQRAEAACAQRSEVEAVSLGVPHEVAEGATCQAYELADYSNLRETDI

GABAA = assay: NIMH-PDSP broad-panel counter screening

Sequence of D1R (P21728 whole entry): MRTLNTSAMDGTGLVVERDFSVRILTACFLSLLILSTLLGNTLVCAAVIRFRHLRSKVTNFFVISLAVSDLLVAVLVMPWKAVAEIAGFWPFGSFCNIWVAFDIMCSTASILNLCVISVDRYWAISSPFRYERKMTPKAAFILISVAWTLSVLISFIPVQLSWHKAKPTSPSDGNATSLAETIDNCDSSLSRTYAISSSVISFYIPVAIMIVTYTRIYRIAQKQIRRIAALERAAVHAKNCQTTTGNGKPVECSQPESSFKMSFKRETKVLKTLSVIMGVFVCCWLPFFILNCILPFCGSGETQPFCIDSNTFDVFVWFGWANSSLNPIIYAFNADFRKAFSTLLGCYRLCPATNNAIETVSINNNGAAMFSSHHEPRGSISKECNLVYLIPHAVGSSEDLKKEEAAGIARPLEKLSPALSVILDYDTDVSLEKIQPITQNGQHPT
Sequence of hERG (Q12809 whole entry): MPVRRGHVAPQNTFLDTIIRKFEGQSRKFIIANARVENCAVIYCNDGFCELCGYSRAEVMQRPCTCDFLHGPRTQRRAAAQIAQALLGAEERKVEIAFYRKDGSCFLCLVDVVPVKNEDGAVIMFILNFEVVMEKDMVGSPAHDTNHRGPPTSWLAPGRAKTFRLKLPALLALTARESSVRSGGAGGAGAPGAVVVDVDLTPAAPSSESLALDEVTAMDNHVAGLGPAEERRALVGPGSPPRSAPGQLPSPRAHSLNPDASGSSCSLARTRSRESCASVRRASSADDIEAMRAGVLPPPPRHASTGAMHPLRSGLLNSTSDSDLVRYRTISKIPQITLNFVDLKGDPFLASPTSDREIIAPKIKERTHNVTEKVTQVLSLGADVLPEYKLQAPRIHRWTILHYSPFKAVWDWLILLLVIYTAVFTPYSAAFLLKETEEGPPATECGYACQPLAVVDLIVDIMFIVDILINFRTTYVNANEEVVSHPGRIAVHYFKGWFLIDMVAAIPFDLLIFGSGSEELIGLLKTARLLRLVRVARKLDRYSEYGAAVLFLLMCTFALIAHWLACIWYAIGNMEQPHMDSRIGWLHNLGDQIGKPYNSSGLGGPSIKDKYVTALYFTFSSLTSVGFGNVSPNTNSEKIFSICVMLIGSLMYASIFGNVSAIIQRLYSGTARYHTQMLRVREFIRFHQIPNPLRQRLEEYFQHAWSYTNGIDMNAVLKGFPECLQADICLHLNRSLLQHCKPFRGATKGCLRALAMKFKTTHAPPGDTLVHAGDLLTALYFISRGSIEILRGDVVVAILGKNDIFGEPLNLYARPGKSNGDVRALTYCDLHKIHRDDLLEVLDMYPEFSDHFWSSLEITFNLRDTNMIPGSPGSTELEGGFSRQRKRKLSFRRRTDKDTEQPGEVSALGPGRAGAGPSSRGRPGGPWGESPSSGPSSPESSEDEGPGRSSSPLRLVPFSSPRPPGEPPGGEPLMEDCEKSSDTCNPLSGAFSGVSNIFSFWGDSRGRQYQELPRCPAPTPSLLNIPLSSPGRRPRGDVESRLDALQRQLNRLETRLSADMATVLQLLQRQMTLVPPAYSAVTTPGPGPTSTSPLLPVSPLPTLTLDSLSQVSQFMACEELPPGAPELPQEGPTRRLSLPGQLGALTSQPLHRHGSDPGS

| Structure (SMILES) | β-arrestin recruitment response at D1R (D1R) | Vd (in vivo; male, Sprague-Dawley, plasma, iv, 10 mg/kg) [L/kg] | CL (in vivo; in vivo, po, 20 mg/kg) [mL/min/kg] | hERG inhibition or binding affinity (hERG) | inhibition at 10 µM (α 1D) [%] | % inhibition (10 μM) (GABAA) [%] |
| --- | --- | --- | --- | --- | --- | --- |
| O=C(NCCO)c1cccc2c1CCN2c1cc(Cc2cccc(C(F)(F)F)c2)ccn1 [Compound 4a] | no response |  |  |  |  |  |
| Cc1c(Nc2cc(Cc3cccc(C(F)(F)F)c3)ccn2)cccc1C(=O)NCCO [Compound 15b, N-(2-Hydroxyethyl)-2-methyl-3-((4-(3-(trifluoromethyl)benzyl)-pyridin-2-yl)amino)benzamide] |  | 1.85 | 103 ± 35 | did not show inhibition or binding affinity | -10.5 | −17.94 |
